For 57 compounds, IC50 results are on record in patent publication US9745297B2, “Compounds as modulators of RORC” (Boehringer Ingelheim International GmbH, priority 2013, dated 2017).

What is called IC50 is the concentration at which inhibition is half-maximal. A higher IC50 goes with weaker potency.

The assay deals with T1, RORγt (Homo sapiens, UniProt P51449).
T1 construct: expressed in transfected cells
T1 sequence (P51449 269-508 limits assumed): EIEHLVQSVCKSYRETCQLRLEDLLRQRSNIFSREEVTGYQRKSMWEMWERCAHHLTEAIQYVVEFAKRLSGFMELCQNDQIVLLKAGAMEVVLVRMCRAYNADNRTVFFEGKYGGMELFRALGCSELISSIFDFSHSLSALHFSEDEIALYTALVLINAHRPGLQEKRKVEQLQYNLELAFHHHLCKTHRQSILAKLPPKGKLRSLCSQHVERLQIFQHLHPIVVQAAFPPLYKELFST
As to the kind of experiment: RGA Assay: nuclear receptor transactivation assay, RORγt transactivation of a luciferase reporter. In kind it is cell-based. To be noted: transiently transfected HEK 293 cells (pGL4.3 luc2P/GAL4UAS, pBIND Gal4DBD hRORC LBD), 20-24 hours incubation, luciferase readout. The method, then:
A nuclear receptor transactivation assay was performed to quantitate the ability of test compounds to inhibit RORγt transactivation of a luciferase reporter. A similar assay is described in: Khan et al., Bioorganic & Medicinal Chemistry Letters 23 (2013), 532-536. The system uses transiently transfected HEK 293 cells cotransfected with two plasmids (pGL4.3, luc2P/GAL4UAS/Hygro, and pBIND, Ga14DBD hRORC LBD1-3). The positive control is co-transiently transfected with both plasmids, and the negative control contains the pGL4.3 promoter sequence. Assays were assembled in 384 well plates where transiently transfected cells and test compound at varying concentrations were incubated for 20-24 hours. The next day, assays plates are taken out and equillibrated at RT for 20-30 minutes. Bright-Glo™ Luciferase Assay System is used to detect Luciferase production. After addition of Bright GLO detection reagent, the plates were incubated at RT for 20 minutes. The plates were read on an Envision plate reader to measure luminescence signal. The RLU signal is converted to POC relative to control and blank wells.
Compound Dilution Buffer:
Bright Glo Luciferase Assay System: Promega #E2620
Thaw lysis buffer provided in kit, add 100 mL lysis buffer to substrate powder.
`CNS(=O)(=O)c1ccc(CNC(=O)N2CC3(CCCC3)c3nc(-c4ccc(F)cc4C)ccc32)cc1` [Example 1]: the 50% inhibitory concentration (IC50) was 1.6 µM. Turning to `Cc1cc(O)ccc1-c1ccc2c(n1)C(C)(C)CN2C(=O)NCc1ccc(C#N)cc1` [Example 2], the half-inhibitory concentration (IC50) is more than 30 µM. With `COc1cc(C)c(-c2ccc3c(n2)C(C)(C)CN3C(=O)NCc2ccc(C#N)cc2)cn1` [Example 3], the half-inhibitory concentration (IC50) is more than 30 µM. The value for `COc1ccc(-c2ccc3c(n2)C(C)(C)CN3C(=O)NCc2ccc(C#N)cc2)c(C(F)(F)F)c1` [Example 4] was 12 µM. The value for `Cc1nc(N2CCOCC2)ccc1-c1ccc2c(n1)C1(CCCC1)CN2C(=O)NCc1ccc(S(C)(=O)=O)cc1` [Example 5] was more than 30 µM; that for `COC1CCCN(c2ccc(-c3ccc4c(n3)C3(CCCC3)CN4C(=O)NCc3ccc(S(C)(=O)=O)cc3)c(C)n2)C1` (stereo not drawn) [Example 6] was 24 µM; that for `COC1CCN(c2ccc(-c3ccc4c(n3)C3(CCCC3)CN4C(=O)NCc3ccc(S(C)(=O)=O)cc3)c(C)n2)CC1` [Example 7] was more than 30 µM. `CNC(=O)c1ccc(-c2ccc3c(n2)C2(CCCC2)CN3C(=O)NCc2ccc(S(C)(=O)=O)cc2)c(C)c1` [Example 8] displayed an IC50 of more than 30 µM. To `CCNC(=O)c1ccc(-c2ccc3c(n2)C2(CCCC2)CN3C(=O)NCc2ccc(S(C)(=O)=O)cc2)c(C)c1` [Example 9] belongs 4.3 µM; to `CCS(=O)(=O)c1ccc(CNC(=O)N2CC3(CCCC3)c3nc(-c4ccc(C#N)cc4C)ccc32)cc1` [Example 10], 11 µM.

`CCS(=O)(=O)c1ccc(CNC(=O)N2CC3(CCCC3)c3nc(-c4ccc(O)cc4C(F)(F)F)ccc32)cc1` [Example 11] returned a half-maximal inhibitory concentration (IC50) of 0.11 µM. Compound `CCS(=O)(=O)c1ccc(CNC(=O)N2CC3(CCCC3)c3nc(-c4ccc(OC)cc4C(F)(F)F)ccc32)cc1` [Example 12] returned an IC50 of 0.48 µM. For the compound `CCS(=O)(=O)c1ccc(CNC(=O)N2CC3(CCCC3)c3nc(-c4cnc(OC)cc4C)ccc32)cc1` [Example 13], the IC50 was found to be 5.2 µM.

Turning to `CCS(=O)(=O)c1ccc(CNC(=O)N2CC3(CCCC3)c3nc(-c4ccc(F)cc4C)ccc32)cc1` [Example 14], half-maximal inhibition (IC50) required 3.4 µM. The value for `CCS(=O)(=O)c1ccc(CNC(=O)N2CC3(CCCC3)c3nc(-c4ccc(O)cc4C)ccc32)cc1` [Example 15] was 0.48 µM; that for `CC1(C)CN(C(=O)NCc2ccc(S(C)(=O)=O)cc2)c2ccc(Br)nc21` [Example 16] was more than 30 µM. To `CNS(=O)(=O)c1ccc(CNC(=O)N2CC(C)(C)c3nc(Br)ccc32)cc1` [Example 17] belongs more than 30 µM; to `COc1ccc(-c2ccc3c(n2)C(C)(C)CN3C(=O)NCc2ccc(S(C)(=O)=O)cc2)c(C(F)(F)F)c1` [Example 18], 3.4 µM; to `COc1cc(C)c(-c2ccc3c(n2)C(C)(C)CN3C(=O)NCc2ccc(S(C)(=O)=O)cc2)cn1` [Example 19], 10 µM. On to `CC(C)c1ncncc1-c1ccc2c(n1)C(C)(C)CN2C(=O)NCc1ccc(S(C)(=O)=O)cc1` [Example 20], for which the IC50 was determined as 19 µM.

`Cc1cc(O)ccc1-c1ccc2c(n1)C(C)(C)CN2C(=O)NCc1ccc(S(C)(=O)=O)cc1` [Example 21]: the IC50 was 12 µM. The value for `Cc1cc(F)ccc1-c1ccc2c(n1)C(C)(C)CN2C(=O)NCc1ccc(S(C)(=O)=O)cc1` [Example 22] was more than 30 µM; that for `CNS(=O)(=O)c1ccc(CNC(=O)N2CC(C)(C)c3nc(-c4ccc(OC)cc4C(F)(F)F)ccc32)cc1` [Example 23] was 1.8 µM; that for `CCS(=O)(=O)c1ccc(CNC(=O)N2CC3(CCCC3)c3nc(-c4c(C)ncnc4C)ccc32)cc1` [Example 24] was 5.9 µM. The value for `CCS(=O)(=O)c1ccc(CNC(=O)N2CC3(CCCC3)c3nc(-c4cncnc4C(C)C)ccc32)cc1` [Example 25] was 1.2 µM; that for `CCS(=O)(=O)c1ccc(CNC(=O)N2CC3(CCCC3)c3nc(-c4c(OC)ncnc4C4CC4)ccc32)cc1` [Example 26] was 0.35 µM; that for `CCS(=O)(=O)c1ccc(CNC(=O)N2CC3(CCCC3)c3nc(-c4sc(OC)nc4C)ccc32)cc1` [Example 27] was 8 µM.

Take `CCS(=O)(=O)c1ccc(CNC(=O)N2CC3(CCCC3)c3nc(-c4c(C)nn(CCN(C)C)c4C)ccc32)cc1` [Example 28]: the concentration for half-maximal inhibition (IC50) was more than 30 µM.

`CCS(=O)(=O)c1ccc(CNC(=O)N2CC3(CCCC3)c3nc(-c4c(C(C)C)n[nH]c4C)ccc32)cc1` [Example 29] came in with a half-inhibitory concentration (IC50) of 1.7 µM. The value for `CCS(=O)(=O)c1ccc(CNC(=O)N2CC3(CCCC3)c3nc(-c4c(C)n[nH]c4C)ccc32)cc1` [Example 31] was more than 30 µM; that for `CCS(=O)(=O)c1ccc(CNC(=O)N2CC3(CCCC3)c3nc(-c4sc(N)nc4C(F)(F)F)ccc32)cc1` [Example 32] was 17 µM; that for `CCS(=O)(=O)c1ccc(CNC(=O)N2CC3(CCCC3)c3nc(-c4cnc(N(C)C)nc4C(F)(F)F)ccc32)cc1` [Example 33] was 1.2 µM. In turn, `COCCOc1cc(C#N)ccc1CNC(=O)N1CC2(CCCC2)c2nc(-c3cncnc3C(C)C)ccc21` [Example 34] returned an IC50 of 11 µM. The value for `CCS(=O)(=O)c1ccc(CNC(=O)N2CC3(CCCC3)c3nc(-c4cncnc4C(F)(F)F)ccc32)cc1` [Example 35] was 2.1 µM; that for `CCS(=O)(=O)c1ccc(CNC(=O)N2CC3(CCCC3)c3nc(-c4c(C)nn(C)c4C)ccc32)cc1` [Example 36] was 16 µM. As to `CCS(=O)(=O)c1ccc(CNC(=O)N2CC3(CCCC3)c3nc(-c4ncc(C)nc4C)ccc32)cc1` [Example 37], the IC50 was more than 30 µM. On to `CCS(=O)(=O)c1ccc(CNC(=O)N2CC3(CCCC3)c3nc(-c4ncc(C(F)(F)F)cn4)ccc32)cc1` [Example 38], for which the 50% inhibitory concentration (IC50) is more than 30 µM. For `CCS(=O)(=O)c1ccc(CNC(=O)N2CC3(CCCC3)c3nc(-c4nnccc4C(F)(F)F)ccc32)cc1` [Example 39], the IC50 was more than 30 µM. The value for `CCS(=O)(=O)c1ccc(CNC(=O)N2CC3(CCCC3)c3nc(-c4ncc(N(C)C)nc4C4CC4)ccc32)cc1` [Example 40] was 1.6 µM.

With `CCS(=O)(=O)c1ccc(CNC(=O)N2CC3(CCCC3)c3nc(-c4nc(C)cnc4C)ccc32)cc1` [Example 41], the 50% inhibitory concentration (IC50) was more than 30 µM. Turning to `CNS(=O)(=O)c1ccc(CNC(=O)N2CC(C)(C)c3nc(-c4ccc(F)cc4C)ccc32)cc1` [Example 42], half-maximal inhibition (IC50) was put at 10 µM. The value for `CNS(=O)(=O)c1ccc(CNC(=O)N2CC(C)(C)c3nc(-c4ccc(O)cc4C)ccc32)cc1` [Example 43] was 8.5 µM. In the case of `CNS(=O)(=O)c1ccc(CNC(=O)N2CC(C)(C)c3nc(-c4cnc(OC)cc4C)ccc32)cc1` [Example 44], it took 18 µM to reach half-maximal inhibition (IC50).

`CNS(=O)(=O)c1ccc(CNC(=O)N2CC(C)(C)c3nc(-c4cncnc4C(C)C)ccc32)cc1` [Example 45] gave an IC50 of 9.1 µM.

`COc1ccc(-c2ccc3c(n2)C2(CCCC2)CN3C(=O)NCc2ccc(C#N)cc2)c(C(F)(F)F)c1` [Example 46] showed a 50% inhibitory concentration (IC50) of 4.1 µM.

For the compound `COc1cc(C)c(-c2ccc3c(n2)C2(CCCC2)CN3C(=O)NCc2ccc(C#N)cc2)cn1` [Example 47], the IC50 came to 15 µM. In the case of `CC1(C)CN(C(=O)NCc2ccc(S(C)(=O)=O)cc2)c2ccc(Oc3ccc(F)c(OC(F)(F)F)c3)nc21` [Example 48], it took 6.6 µM to reach half-maximal inhibition (IC50).

Consider `CNS(=O)(=O)c1ccc(CNC(=O)N2CC(C)(C)c3nc(Oc4ccc(F)c(OC(F)(F)F)c4)ccc32)cc1` [Example 49], for which the IC50 was 4.1 µM. For the compound `Cc1cc(F)ccc1-c1ccc2c(n1)C1(CCCC1)CN2C(=O)NCc1ccc(S(C)(=O)=O)cc1` [Example 50], it took 8.6 µM to reach half-maximal inhibition (IC50). To `CNS(=O)(=O)c1ccc(CNC(=O)N2CC3(CCCC3)c3nc(-c4ccc(OC)cc4C(F)(F)F)ccc32)cc1` [Example 51] belongs 0.71 µM; to `COc1ccc(-c2ccc3c(n2)C2(CCCC2)CN3C(=O)NCc2ccc(S(C)(=O)=O)cc2)c(C(F)(F)F)c1` [Example 52], 0.93 µM. Turning to `Cc1cc(O)ccc1-c1ccc2c(n1)C1(CCCC1)CN2C(=O)NCc1ccc(S(C)(=O)=O)cc1` [Example 54], half-maximal inhibition (IC50) was put at 1.4 µM. Compound `CNS(=O)(=O)c1ccc(CNC(=O)N2CC3(CCCC3)c3nc(-c4cncnc4C(C)C)ccc32)cc1` [Example 55] gave an IC50 of 1.1 µM. The IC50 values of the last two compounds are within 1.5-fold of each other. To `CC(C)c1ncncc1-c1ccc2c(n1)C1(CCCC1)CN2C(=O)NCc1ccc(S(C)(=O)=O)cc1` [Example 56] belongs 1.6 µM. `CNS(=O)(=O)c1ccc(CNC(=O)N2CC3(CCCC3)c3nc(-c4cnc(OC)cc4C)ccc32)cc1` [Example 57]: the IC50 amounted to 5.2 µM.

For `COc1cc(C)c(-c2ccc3c(n2)C2(CCCC2)CN3C(=O)NCc2ccc(S(C)(=O)=O)cc2)cn1` [Example 58], the half-maximal inhibitory concentration (IC50) was determined as 8 µM. In turn, `CS(=O)(=O)c1ccc(CNC(=O)N2CC3(CCCC3)c3nc(Oc4ccc(C(F)(F)F)nc4)ccc32)cc1` [Example 59] had an IC50 of more than 30 µM.
